This note sets out measurements from article PMC10209615, “Pharmacological inhibition of LSD1 suppresses growth of hepatocellular carcinoma by inducing GADD45B” (MedComm, 2023).

The subject of one data set is HepG2. As to the kind of experiment: MTT assay, ZY0511 and DTP3. The conditions noted are these: Homo sapiens, HepG2, 96 h, read-out: Inhibition rate. The format is cell-based. As for the experimental part: (§1) Cell viability was determined using Cell Counting Kit‐8 (CCK8; Dojindo) or 3‐(4, 5‐dimethylthiazol‐2‐yl)‐2,5‐diphenyltetrazoliumbromide (MTT, Sigma Aldrich) assay. A selection of HCC cells was exposed to gradient concentration of ZY0511 for 96–144 h, or exposed to other LSD1 inhibitors including SP2509, GSK2879552, and ORY1001 for 144 h, or exposed to DTP3, which enhanced the apoptosis induction function of GADD45B for 96 h in combination therapy. Consequently, cell viability was determined using a microplate reader (Thermo Fisher) at 450 nm for CCK8 assay, or 570 nm for MTT assay, at different time points. The IC50 values and CI values were analyzed and calculated using GraphPad Prism 8 and CompuSyn (version 1.0; http://www.combosyn.com), respectively.
For orientation: Tetrazolium dyes change colour on reduction, which living cells bring about.

In a further data set the test system is Hep3B. Nature of the data set: MTT assay, ZY0511 and DTP3. The format is cell-based. The following applies: Homo sapiens, 96 h, read-out: Inhibition rate. On the procedure: as §1
Data set [1] has as its system 104 cancer‐related kinases. As to the kind of experiment: Kinase activity detection (Eurofins), whole panel. The format is biochemical. The conditions noted are these: ZY0511 1 μM. On the procedure:
The activity of ZY0511 against 104 cancer‐related kinases was carried out by Eurofins Pharma Discovery Services (Celle Lévescault, France).

The nature of data set [2]: Body weight of tumor‐bearing mice (HepG2, Hep3B, PDX1, PDX2). The following applies: CDX and PDX models, compared with control. The format is in vivo. As for the experimental part:
(§2) When the tumor volume reached approximately 100 mm^3, CDX & PDX tumor‐bearing mice were randomly divided into groups: (1) blank solvent; (2) ZY0511 50 mg/kg per day, i.p.; (3) ZY0511 100 mg/kg per day, i.p.; and (4) combinatorial treatment of ZY0511 50 mg/kg with DTP3 30 mg/kg, per day, i.p. Tumor sizes and animal body weights were monitored every 3 days, and tumor volumes were calculated as 0.5 × length × width^2. TGI rate was calculated as (1 − tumor volume of treated group/tumor volume of control group) x 100%.

For a further data set, the system named is LSD1 knockout JHH7 cells. Nature of the data set: Proliferation of LSD1 knockout JHH7 cells after ZY0511. The format is cell-based, human. The conditions noted are these: ZY0511 treatment for 96 h. On the procedure:
Cell viability was determined using Cell Counting Kit‐8 (CCK8; Dojindo) or 3‐(4, 5‐dimethylthiazol‐2‐yl)‐2,5‐diphenyltetrazoliumbromide (MTT, Sigma Aldrich) assay. […] Consequently, cell viability was determined using a microplate reader (Thermo Fisher) at 450 nm for CCK8 assay, or 570 nm for MTT assay, at different time points. The IC50 values and CI values were analyzed and calculated using GraphPad Prism 8 and CompuSyn (version 1.0; http://www.combosyn.com), respectively.

The next data set relates to PDX3 tumors. As to the kind of experiment: Third PDX model (PDX3), ZY0511 and DTP3. The format is in vivo, NOD/SCID mice. On the procedure: For CDX models, HCC cells (HepG2, Hep3B) were harvested, and cells suspension (5 × 10^6 − 1 × 10^7 cells per mouse) were subcutaneously injected into the hind flank region of nude mice. For PDX models, fresh HCC tissues obtained from West China Hospital were minced into 2–5 mm^3 sizes to build the PDX models. The HCC tissue fragments were transplanted into the hind flank region of NOD/SCID mice within 2 h. Once the tumor volume reached ∼2 cm^3, the PDX models were expanded.
as §2
Both procedures were carried out as previously described.[21] In brief, samples were fixated in 4% paraformaldehyde and consequently paraffin‐coated. Thin tissue segments (4 μm) were prepared, and H&E staining was performed. […]

Broadly, the inhibition is the change of the read-out against control, counted positive when it falls. The TGI is how far tumour growth fell short of that in controls. High values mean much slowing of growth, low ones little slowing of growth. `O=C(N/N=C1\CCc2c(Cl)ccc(O)c21)c1cccc(S(=O)(=O)N2CCOCC2)c1` [ZY0511, (E)‐N'‐(2, 3‐dihydro‐1H‐inden‐1‐ylidene) benzohydrazides]: in the data set with HepG2, the inhibition at 0.25 µM is 47%, the inhibition at 0.5 µM came out at 65%, the inhibition at 1 µM came to 79% and the inhibition at 2 µM is 80%. Also, in the data set on Hep3B, the inhibition at 0.25 µM amounted to 31%, the inhibition at 0.5 µM came out at 42%, the inhibition at 1 µM came to 49% and the inhibition at 2 µM is 61%. In data set [1], the “effect against other kinases, including FGFR, VEGFR, and PDGFR” value is “no effect”. Moreover, the “body weight of mice” value in data set [2] is “did not change”. Further, the “decrease of sensitivity of JHH7 cells to ZY0511 by LSD1 knockout” value in the data set with LSD1 knockout JHH7 cells stood at 20%. The TGI with PDX3 tumors (PDX3, ZY0511 50 mg/kg i.p., 15 days) worked out at 32.79%. The mice body weight result in the data set with PDX3 tumors (PDX3, ZY0511 and/or DTP3, 15 days) is given as “no change”.
